Data as given in publication PMC8468024, “PTP1B Inhibitory Secondary Metabolites from an Antarctic Fungal Strain Acremonium sp. SF-7394” (Molecules, 2021).

Target: T1, protein tyrosine phosphatase 1B (PTP1B) (Homo sapiens, UniProt P18031)
T1 construct: gene PTPN1
T1 sequence (P18031 1-435): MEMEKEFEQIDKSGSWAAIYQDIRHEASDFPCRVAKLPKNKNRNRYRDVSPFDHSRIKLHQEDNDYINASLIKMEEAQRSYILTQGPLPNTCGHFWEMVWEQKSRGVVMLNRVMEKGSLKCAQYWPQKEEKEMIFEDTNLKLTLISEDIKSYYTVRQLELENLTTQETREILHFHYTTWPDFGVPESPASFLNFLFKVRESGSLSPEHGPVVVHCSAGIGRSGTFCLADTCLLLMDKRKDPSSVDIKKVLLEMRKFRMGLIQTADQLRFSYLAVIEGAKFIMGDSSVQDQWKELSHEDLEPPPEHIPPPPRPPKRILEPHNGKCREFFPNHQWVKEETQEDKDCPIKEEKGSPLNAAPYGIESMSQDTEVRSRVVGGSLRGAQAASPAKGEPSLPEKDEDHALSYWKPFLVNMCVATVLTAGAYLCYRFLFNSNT
Test: p-NPP hydrolysis assay with recombinant enzyme; Lineweaver–Burk kinetics
Assay type: biochemical

IC50: 22.8 ± 1.1 µM
SMILES: CC(C)C[C@@H]1C[C@H](C)[C@@H]2CC[C@H](C)c3ccc(CO)c1c32 [compound 1, acrepseudoterin]
